Measured values from PMC10699557, “A recombinant approach for stapled peptide discovery yields inhibitors of the RAD51 recombinase” (Chemical Science, 2023).
“Also recorded” adds a separate entry of the source. Numbered stars: 1 amine (or outer) side, 2 acyl side, 3 side chain; on linkers, the order of the positions; unused ones are H or OH. Bridge positions count the residues as written; N and C are the ends. Peptide text beside a SMILES is read from it. X1 = Nc1nc(CC[*:1])cc(CC[*:2])n1

Assays:
[1] = target: monomeric version of RAD51 (HumRadA22) (Pyrococcus furiosus, UniProt O74036); assay: Fluorescence polarisation (FP) competition assay: displacement of fluorescein-labelled BRC4 repeat; type: binding, archaeal RadA mutant with human Rad51 surface residues; conditions: read-out: FP competition KD, nM, Stapled; stapled product (linker DVT or DVP as in Table 1); 100 nM HumRadA22, 10 nM BRC4-fluorescein; 20 mM CHES pH 9.5, 150 mM NaCl, 0.1% BSA, 0.1% Tween-20; KD calculated from IC50; single titration, three technical replicates per point
Source text: We prepared all stapled peptides from small-scale bacterial cultures as GB1/C-His8 fusions and cyclised them with the DVT linker. For peptides SP10, SP11, SP12 and SP15, correct stapling was confirmed by MS, showing a similar composition to SP2 (Fig. S15–S18 ^†). Thus, we confirm that the pseudo-dilution approach is robust in yielding almost exclusively the cyclised product, irrespective of whether a helical or non-helical motif is being constrained. To examine the effect of introducing a covalent staple on affinity, a mock reaction was done in parallel for each peptide by splitting the IMAC elution into two halves and adding DMSO to the mock control instead of the linker. TCEP (500 μM) was included in the mock reaction to maintain the peptide in linear form by preventing disulfide formation. The peptides were tested in a fluorescence polarisation (FP) assay monitoring the displacement of a fluorescently-labelled BRC4 repeat from a monomeric version of RAD51 (HumRadA22), as reported previously.[25] […]
Fluorescence polarisation competition assay
FP competition assay was a modified version of a protocol described previously. Fluorescein-labelled HsBRC4 probe for this assay was kindly provided by Dr Laurens Lindenburg (Hollfelder group, Department of Biochemistry, University of Cambridge). Black 384-well flat-bottom microplates (Corning, 3821) were used with a 40 μl final reaction volume in all measurements. Following buffer conditions were used: 20 mM CHES pH 9.5, 150 mM NaCl, 0.1% BSA, 0.1% Tween-20. Each reaction contained 100 nM HumRadA22 and 10 nM BRC4-fluorescein. Two-fold serial dilutions of stapled peptides were added to the reactions. A free probe control reaction containing only 10 nM BRC4-fluorescein was used to calibrate gain and focal height. FP measurements were performed on Pherastar FX or Clariostar Plus (BMG Labtech) plate readers equipped with an FP 485-520-520 optic modules. Binding curves were fitted using the four-parameter logistic model with a variable Hill slope using Prism software (Graphpad). Regression fitting was performed using the least squares optimisation algorithm.
KD values were estimated from the fitted IC 50 parameters using a previously reported

RAD51 foci in U2OS cells = assay: Immunofluorescence of IR-induced RAD51 foci formation; type: cell-based, human; conditions: 40 μM peptide for 1 hour, then 3 Gy IR or no radiation, 3 hours recovery, five independent experiments
Description: We monitored the ability of SP30 and SP31 to disrupt IR-induced RAD51 foci formation using IF. Cells were pre-incubated with the peptides or with vehicle (control), after which they were either treated with no radiation or with 3 Gy IR and imaged after a 3 hours recovery. We observed RAD51 foci in the absence of peptide and IR treatment, which likely reflects recombination events associated with the basal replicative stress of U2OS cells (Fig. 5 and S4 ^†). As expected, IR treatment of control cells leads to an apparent increase in the number of RAD51 foci (Fig. 5 and S4 ^†). […] We also tested whether a linear version of SP31 (L31) also affects IR-induced and baseline foci counts in five independent experiments (Fig. S5 and S6 ^†). […] It is possible that in some of the experiments the unstapled cysteines of L31 formed a disulfide bridge in the oxidising environment of cell culture, which protected it against proteolytic degradation, similarly to chemical stapling.
(A) Representative immunofluorescence images of U2OS cells incubated with SP30 (40 μM, SP30), SP31 (40 μM, SP31) or vehicle alone (control) for 1 hour, after which they were treated with 3 Gy ionising radiation (3 Gy 3 h) or no radiation (noIR) and allowed to recover for 3 hours. Cells were stained with α-RAD51 and Hoechst 33342 as indicated. Scale bar is 10 μm. […]

SMILES	Kd [1] [nM]	Effect on number of RAD51 foci (RAD51 foci in U2OS cells)
CC(C)C[C@@H]1NC(=O)[C@H](CCCCN)NC(=O)[C@H](CCCCN)NC(=O)CNC(=O)[C@H](CO)NC(=O)[C@H](C)NC(=O)[C@H]([C@@H](C)O)NC(=O)[C@H](CO)NC(=O)[C@H](Cc2ccccc2)NC(=O)CNC(=O)[C@H](CO)NC(=O)[C@@H](NC(=O)CN)CSCCc2cc(nc(N)n2)CCSC[C@@H](C(=O)N[C@@H](CCC(N)=O)C(=O)N[C@@H](CCCCN)C(=O)N[C@@H](C)C(=O)N[C@H](C(=O)N[C@@H](CCCCN)C(=O)N[C@@H](CC(C)C)C(=O)N[C@@H](Cc2ccccc2)C(=O)N[C@@H](CO)C(=O)NCC(=O)O)C(C)C)NC(=O)[C@H](C)NC(=O)[C@H](CCC(N)=O)NC(=O)[C@H]([C@@H](C)O)NC(=O)[C@H](CO)NC(=O)[C@H](C(C)C)NC(=O)[C@H](CC(N)=O)NC1=O [SP30] (H-GCSGFSTASGKKLNVSTQACQKAVKLFSG-OH; linker 2-20 via X1)	13	but not SP30, significantly reduces the number of RAD51 foci
CC(C)C[C@@H]1NC(=O)[C@H](CCCCN)NC(=O)[C@H](CCCCN)NC(=O)CNC(=O)[C@H](CO)NC(=O)[C@H](C)NC(=O)[C@H]([C@@H](C)O)NC(=O)[C@H](CO)NC(=O)[C@H](Cc2ccccc2)NC(=O)CNC(=O)[C@H](CO)NC(=O)[C@@H](NC(=O)CNC(=O)CNC(=O)[C@H](CCCNC(=N)N)NC(=O)[C@H](CCCNC(=N)N)NC(=O)[C@H](CCCNC(=N)N)NC(=O)[C@H](CCCNC(=N)N)NC(=O)[C@H](CCCNC(=N)N)NC(=O)[C@H](CCCNC(=N)N)NC(=O)[C@H](CCCNC(=N)N)NC(=O)[C@H](CCCNC(=N)N)NC(=O)[C@H](CCCNC(=N)N)NC(=O)CN)CSCCc2cc(nc(N)n2)CCSC[C@@H](C(=O)N[C@@H](CCC(N)=O)C(=O)N[C@@H](CCCCN)C(=O)N[C@@H](C)C(=O)N[C@H](C(=O)N[C@@H](CCCCN)C(=O)N[C@@H](CC(C)C)C(=O)N[C@@H](Cc2ccccc2)C(=O)N[C@@H](CO)C(=O)NCC(=O)O)C(C)C)NC(=O)[C@H](C)NC(=O)[C@H](CCC(N)=O)NC(=O)[C@H]([C@@H](C)O)NC(=O)[C@H](CO)NC(=O)[C@H](C(C)C)NC(=O)[C@H](CC(N)=O)NC1=O [SP31] (H-GRRRRRRRRRGGCSGFSTASGKKLNVSTQACQKAVKLFSG-OH; linker 13-31 via X1)	14	significantly reduces the number of RAD51 foci in both IR-treated and untreated cells; also recorded: disrupts RAD51 foci formation
